Our source for the GI50 and TGI values is PubChem BioAssay (NCI).

“And” between values parts separate entries of the source, which are not always exact repeats. Equal entries are not always repeated.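 Protocol summary: plate cells (96-well), add compound at 5 concentrations, incubate 48 h, interpolate endpoints linearly. Abbreviation: GI50, concentration required for 50% inhibition of growth. Definition used: TGI = concentration required for complete inhibition of growth.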

The test system of the first assay is COLO 205 colon. The assay is described as follows: NCI-60 cell line screen, 48 h.
Turning to `COc1c(C)c2c(c(O)c1C/C=C(\C)CCC(=O)O)C(=O)OC2`, the GI50 was 416 nM and the TGI is above 100 µM.

As to `Cc1cc(O)c(C(C)C)cc1S(=O)(=O)O` (tested in a mixture with another compound), the GI50 is 224 nM.

As to `COc1cc(C[C@H]2c3cc(OC)c(OC)cc3CCN2C)c(Oc2cc3c(cc2OC)-c2c(OC)c(OC)cc4c2[C@H](C3)N(C)CC4)cc1OC`, the GI50 is 2170 nM; the TGI was 12.6 µM and 8.09 µM.

In the case of `COc1cc(C(=O)O[C@H](C(=O)NCCCCCNC(=O)[C@@H](OC(=O)c2cc(OC)cc3c(C)cccc23)[C@]2(C)CO2)[C@]2(C)CO2)c2cccc(C)c2c1`, the GI50 was 286 nM.

`COc1cc2ccc(/C=C\[N+](=O)[O-])cc2cc1OC`: the TGI was 15.9 µM.

The molecule `COC(=O)C1(C)CCC(c2ccc(C)cc2)=C(CC(=O)O)C1` (stereo not drawn) displayed a TGI above 100 µM.

For the molecule `CCN(CC)CCCC(C)Nc1ccnc2cc(Oc3ccccc3)ccc12` (stereo not drawn), the GI50 was 1880 nM and 1650 nM; the TGI is 4.4 µM and 3.94 µM.

Regarding `COc1cc([C@@H]2OC[C@@H]3C(c4cc(OC)c5c(c4)OCO5)OC[C@@H]32)cc(OC)c1OC` (stereo partly drawn), the TGI was above 100 µM.

Turning to `C=C1CCC2C3(C)COC(c4ccc(N(C)C)cc4)OC3CCC2(C)C1C/C=C1/C(=O)OCC1O` (stereo not drawn), the GI50 is 3540 nM and the TGI came out at 12.7 µM.

`COc1cc(OC(=O)c2ccccc2)cc2c1C(=O)C=CC2=O` gave a TGI of 33.7 µM.

Take `CC/C=C1/C(=O)C=C[C@@H]1C/C=C\CCCC(=O)OC`: the GI50 is 2400 nM and the TGI is 5.18 µM.

In the case of `CCN(CC)CCCCNc1c2ccccc2[n+](C)c2c1[nH]c1ccccc12`, the GI50 was 189 nM and the TGI was determined as 0.983 µM.

In the case of `COc1ccc(C(=O)c2cc(OC)c(OC)c(OC)c2)cc1OC(=O)CCl`, the GI50 was 1210 nM and the TGI was 15.6 µM.

For `COc1ccc(/C(COc2ccc3c(=O)cc(-c4ccccc4)oc3c2)=N\O)cc1`, the GI50 is 26500 nM and the TGI is above 50 µM.

Take `CC(C)(C)OC(=O)N1CCN(CCn2cc(C(F)(F)F)c3c(Cl)ncnc32)CC1`: the GI50 is 18400 nM and the TGI came out at 37.9 µM.

Molecule `Cc1ccc(Nc2n[nH]c(=S)s2)cc1C` displayed a TGI above 100 µM.

Take `CN(C)CCN1C(=O)c2ccccc2N(C)c2ccccc21`: the GI50 is above 100000 nM and the TGI was above 100 µM.

A further assay has as its system A549 NSCLC. The experiment in a line: NCI-60 cell line screen, 48 h.
As to `COc1c(C)c2c(c(O)c1C/C=C(\C)CCC(=O)O)C(=O)OC2`, the GI50 is 0.239 µM and the TGI is above 100 µM.

For the molecule `Cc1cc(O)c(C(C)C)cc1S(=O)(=O)O` (tested in a mixture with another compound), the GI50 is 0.372 µM.

For `COc1cc(C[C@H]2c3cc(OC)c(OC)cc3CCN2C)c(Oc2cc3c(cc2OC)-c2c(OC)c(OC)cc4c2[C@H](C3)N(C)CC4)cc1OC`, the GI50 was 15.6 µM; the TGI is 28.2 µM and 29.4 µM.

On to `COc1cc(C(=O)O[C@H](C(=O)NCCCCCNC(=O)[C@@H](OC(=O)c2cc(OC)cc3c(C)cccc23)[C@]2(C)CO2)[C@]2(C)CO2)c2cccc(C)c2c1`, for which the GI50 was 0.447 µM and the TGI turned out to be 10.2 µM.

Consider `COc1cc2ccc(/C=C\[N+](=O)[O-])cc2cc1OC`, for which the TGI came to 29.8 µM.

The molecule `COC(=O)C1(C)CCC(c2ccc(C)cc2)=C(CC(=O)O)C1` (stereo not drawn) came in with a TGI above 100 µM.

With `CCN(CC)CCCC(C)Nc1ccnc2cc(Oc3ccccc3)ccc12` (stereo not drawn), the GI50 is 4.13 µM and 14.2 µM; the TGI is 14.8 µM and 47.6 µM.

Molecule `COc1cc([C@@H]2OC[C@@H]3C(c4cc(OC)c5c(c4)OCO5)OC[C@@H]32)cc(OC)c1OC` (stereo partly drawn) gave a TGI above 100 µM.

With `C=C1CCC2C3(C)COC(c4ccc(N(C)C)cc4)OC3CCC2(C)C1C/C=C1/C(=O)OCC1O` (stereo not drawn), the GI50 is 4.73 µM and the TGI was 17.3 µM.

Consider `COc1cc(OC(=O)c2ccccc2)cc2c1C(=O)C=CC2=O`, for which the TGI came to 68.4 µM.

As for `CC/C=C1/C(=O)C=C[C@@H]1C/C=C\CCCC(=O)OC`, the GI50 is 13.3 µM and the TGI is 29.5 µM.

As for `CCN(CC)CCCCNc1c2ccccc2[n+](C)c2c1[nH]c1ccccc12`, the GI50 is 0.0558 µM and the TGI stood at 33.2 µM.

For `COc1ccc(C(=O)c2cc(OC)c(OC)c(OC)c2)cc1OC(=O)CCl`, the GI50 was 0.164 µM and the TGI was above 100 µM.

Turning to `COc1ccc(/C(COc2ccc3c(=O)cc(-c4ccccc4)oc3c2)=N\O)cc1`, the GI50 is 20.1 µM and the TGI was above 50 µM.

Regarding `CC(C)(C)OC(=O)N1CCN(CCn2cc(C(F)(F)F)c3c(Cl)ncnc32)CC1`, the GI50 was 19.3 µM and the TGI was 35.6 µM.

Turning to `Cc1ccc(Nc2n[nH]c(=S)s2)cc1C`, the TGI is above 100 µM.

For `CN(C)CCN1C(=O)c2ccccc2N(C)c2ccccc21`, the GI50 is above 100 µM and the TGI is above 100 µM.

The test system of another assay is M14 melanoma. The assay is described as follows: NCI-60 cell line screen, 48 h.
In the case of `COc1c(C)c2c(c(O)c1C/C=C(\C)CCC(=O)O)C(=O)OC2`, the GI50 is 343 nM and the TGI is above 100 µM.

With `Cc1cc(O)c(C(C)C)cc1S(=O)(=O)O` (tested in a mixture with another compound), the GI50 is 296 nM.

`COc1cc(C[C@H]2c3cc(OC)c(OC)cc3CCN2C)c(Oc2cc3c(cc2OC)-c2c(OC)c(OC)cc4c2[C@H](C3)N(C)CC4)cc1OC`: the GI50 is 1900 nM; the TGI was 4.36 µM and 3.48 µM.

Regarding `COc1cc(C(=O)O[C@H](C(=O)NCCCCCNC(=O)[C@@H](OC(=O)c2cc(OC)cc3c(C)cccc23)[C@]2(C)CO2)[C@]2(C)CO2)c2cccc(C)c2c1`, the TGI came to 0.305 µM.

The molecule `COc1cc2ccc(/C=C\[N+](=O)[O-])cc2cc1OC` registered a TGI of 7.41 µM.

As to `COC(=O)C1(C)CCC(c2ccc(C)cc2)=C(CC(=O)O)C1` (stereo not drawn), the TGI was above 100 µM.

Take `CCN(CC)CCCC(C)Nc1ccnc2cc(Oc3ccccc3)ccc12` (stereo not drawn): the GI50 is 1770 nM and 1790 nM; the TGI was 3.5 µM and 3.35 µM.

`COc1cc([C@@H]2OC[C@@H]3C(c4cc(OC)c5c(c4)OCO5)OC[C@@H]32)cc(OC)c1OC` (stereo partly drawn) registered a TGI above 100 µM.

On to `C=C1CCC2C3(C)COC(c4ccc(N(C)C)cc4)OC3CCC2(C)C1C/C=C1/C(=O)OCC1O` (stereo not drawn), for which the GI50 was 4100 nM and the TGI is 16.7 µM.
